The values that follow come from patent publication US8329755B2, “Methods for treating retroviral infections” (Roche Palo Alto LLC, priority 2004, dated 2012).

As usually defined, the melting point is the temperature, or range, at which the solid turns liquid.

In turn, `COc1cc(CC(=O)Nc2ccc(S(N)(=O)=O)cc2Cl)cc(Oc2cc(Cl)cc(C#N)c2)c1` [Compound I-136, 2-[3-(3-Chloro-5-cyano-phenoxy)-5-methoxy-phenyl]-N-(2-chloro-4-sulfamoyl-phenyl)-acetamide] yielded a melting point of 159 to 161.1 °C.
Turning to `Cc1cc(S(=O)(=O)CC(=O)O)ccc1NC(=O)Cc1ccc(C)c(Oc2cc(Cl)cc(C#N)c2)c1` [Compound I-152, (4-{2-[3-(3-Chloro-5-cyano-phenoxy)-4-methyl-phenyl]-acetylamino}-3-methyl-benzenesulfonyl)-acetic acid], the melting point lay in the range of 180.5 to 181.4 °C.
In the case of `N#Cc1cc(Cl)cc(Oc2c(Cl)ccc(CC(=O)Nc3ccc(S(N)(=O)=O)cc3Cl)c2F)c1` [Compound I-100, 2-[4-Chloro-3-(3-chloro-5-cyano-phenoxy)-2-fluoro-phenyl]-N-(2-chloro-4-sulfamoyl-phenyl)-acetamide] it was 234.4 to 234.9 °C; in that of `Cc1cc(N2CCS(=O)(=O)CC2)ccc1NC(=O)Cc1ccc(C)c(Oc2cc(Cl)cc(C#N)c2)c1` [Compound I-161, 2-[3-(3-Chloro-5-cyano-phenoxy)-4-methyl-phenyl]-N-[4-(1,1-dioxo-1λ^6-thiomorpholin-4-yl)-2-methyl-phenyl]-acetamide], 64.8 to 65.4 °C.
In the case of `Cc1cc(OC[C@@H](O)CO)ccc1NC(=O)Cc1ccc(C)c(Oc2cc(Cl)cc(C#N)c2)c1` [Compound I-150, 2-[3-(3-Chloro-5-cyano-phenoxy)-4-methyl-phenyl]-N-[4-((S)-2,3-dihydroxy-propoxy)-2-methyl-phenyl]-acetamide] it was 137.5 to 138.4 °C; in that of `Cc1cc(S(N)(=O)=O)ccc1NC(=O)Cc1ccc(Cl)c(Oc2cc(C#N)cc(C#CCO)c2)c1F` [Compound I-186, 2-{4-Chloro-3-[3-cyano-5-(3-hydroxy-prop-1-ynyl)-phenoxy]-2-fluoro-phenyl}-N-(2-methyl-4-sulfamoyl-phenyl)-acetamide], 170.1 to 173.2 °C; in that of `NS(=O)(=O)c1ccc(NC(=O)Cc2ccc(Cl)c(Cc3cc(Cl)ccc3Cl)c2)c(Cl)c1` [Compound I-209, 2-[4-Chloro-3-(2,5-dichloro-benzyl)-phenyl]-N-(2-chloro-4-sulfamoyl-phenyl)-acetamide], 219.3 to 221.5 °C.
The compound `Cc1ccc(CC(=O)Nc2ccccc2Cl)c(F)c1Oc1cc(C#N)cc(C(F)F)c1` [Compound I-86, N-(2-Chloro-phenyl)-2-[3-(3-cyano-5-difluoromethyl-phenoxy)-2-fluoro-4-methyl-phenyl]-acetamide] yielded a melting point of 163.3 to 164.4 °C.
In turn, `Cc1cc(C(=O)CN2CCN(C)CC2)ccc1NC(=O)Cc1ccc(C)c(Oc2cc(Cl)cc(C#N)c2)c1` [Compound I-159, 2-[3-(3-Chloro-5-cyano-phenoxy)-4-methyl-phenyl]-N-{2-methyl-4-[2-(4-methyl-piperazin-1-yl)-acetyl]-phenyl}-acetamide] had a melting point of 62.3 to 64.1 °C.
As for `Cc1cc(S(N)(=O)=O)ccc1NC(=O)Cc1cc(C)c(C)c(Oc2cc(Cl)cc(C#N)c2)c1` [Compound I-183, 2-[3-(3-Chloro-5-cyano-phenoxy)-4,5-dimethyl-phenyl]-N-(2-methyl-4-sulfamoyl-phenyl)-acetamide], the figure is 230.8 to 233.4 °C; as for `Cc1cc(CC(=O)Nc2ccc(S(N)(=O)=O)cc2)cc(Oc2cc(Cl)cc(C#N)c2)c1C` [Compound I-182, 2-[3-(3-Chloro-5-cyano-phenoxy)-4,5-dimethyl-phenyl]-N-(4-sulfamoyl-phenyl)-acetamide], 229.7 to 231.3 °C.
Consider `COc1ccc(CC(=O)Nc2ccc(S(N)(=O)=O)cc2)cc1Oc1cc(C#N)cc(C(F)F)c1` [Compound I-92, 2-[3-(3-Cyano-5-difluoromethyl-phenoxy)-4-methoxy-phenyl]-N-(4-sulfamoyl-phenyl)-acetamide], for which the melting point is 213.9 to 214.2 °C.
In the case of `CCc1cc(CC(=O)Nc2ccc(S(N)(=O)=O)cc2Cl)cc(Oc2cc(C#N)ccc2Cl)c1` [Compound I-107, 2-[3-(2-Chloro-5-cyano-phenoxy)-5-ethyl-phenyl]-N-(2-chloro-4-sulfamoyl-phenyl)-acetamide], the melting point lay in the range of 204 to 207 °C.
In the case of `CC(F)(F)c1cc(C#N)cc(Oc2c(Cl)ccc(CC(=O)Nc3ccc(S(N)(=O)=O)cc3)c2F)c1` [Compound I-95, 2-{4-Chloro-3-[3-cyano-5-(1,1-difluoro-ethyl)-phenoxy]-2-fluoro-phenyl}-N-(4-sulfamoyl-phenyl)-acetamide] it was 207 to 209.8 °C; in that of `CCc1ccc(CC(=O)Nc2ccccc2Cl)cc1Oc1c(Cl)cccc1Cl` [Compound I-23, N-(2-Chloro-phenyl)-2-[3-(2,6-dichloro-phenoxy)-4-ethyl-phenyl]-acetamide], 107 to 110.5 °C; in that of `N#Cc1cc(Oc2c(Br)ccc(CC(=O)Nc3ccc(S(N)(=O)=O)cc3Cl)c2F)cc(C(F)F)c1` [Compound I-165, 2-[4-Bromo-3-(3-cyano-5-difluoromethyl-phenoxy)-2-fluoro-phenyl]-N-(2-chloro-4-sulfamoyl-phenyl)-acetamide], 205.4 to 207.7 °C.
The compound `N#Cc1cc(Oc2c(Cl)ccc(CC(=O)Nc3ccc(S(N)(=O)=O)cc3)c2F)cc(C(F)F)c1` [Compound I-13, 2-[4-Chloro-3-(3-cyano-5-difluoromethyl-phenoxy)-2-fluoro-phenyl]-N-(4-sulfamoyl-phenyl)-acetamide] registered a melting point of 214 to 218 °C.
As for `COc1ccc(CC(=O)Nc2ccc(S(N)(=O)=O)cc2C)cc1Oc1cc(C#N)cc(C(F)F)c1` [Compound I-93, 2-[3-(3-Cyano-5-difluoromethyl-phenoxy)-4-methoxy-phenyl]-N-(2-methyl-4-sulfamoyl-phenyl)-acetamide], the figure is 175 to 177.2 °C; as for `Cc1ccc(CC(=O)Nc2ccc(S(N)(=O)=O)cc2Cl)c(F)c1Oc1cc(Cl)cc(C#N)c1` [Compound I-83, 2-[3-(3-Chloro-5-cyano-phenoxy)-2-fluoro-4-methyl-phenyl]-N-(2-chloro-4-sulfamoyl-phenyl)-acetamide], 228.9 to 230.6 °C.
As for `Cc1cc(S(=O)(=O)CCC#N)ccc1NC(=O)Cc1ccc(C)c(Oc2cc(Cl)cc(C#N)c2)c1` [Compound I-137, 2-[3-(3-Chloro-5-cyano-phenoxy)-4-methyl-phenyl]-N-[4-(2-cyano-ethanesulfonyl)-2-methyl-phenyl]-acetamide], the figure is 186.1 to 188 °C.
As for `N#Cc1cc(Oc2c(Cl)ccc(CC(=O)Nc3ccccc3Cl)c2F)cc(C(F)F)c1` [Compound I-14, 2-[4-Chloro-3-(3-cyano-5-difluoromethyl-phenoxy)-2-fluoro-phenyl]-N-(2-chloro-phenyl)-acetamide], the figure is 169.5 to 171 °C; as for `N#Cc1cc(C#N)cc(Oc2c(Cl)ccc(CC(=O)Nc3ccc(S(N)(=O)=O)cc3)c2F)c1` [Compound I-9, 2-[4-Chloro-3-(3,5-dicyano-phenoxy)-2-fluoro-phenyl]-N-(4-sulfamoyl-phenyl)-acetamide], 135.7 to 138.1 °C.
With `CCc1ccc(CC(=O)Nc2ccccc2Cl)cc1Oc1cc(C#N)cc(C#N)c1Cl` [Compound I-60, 2-[3-(2-Chloro-3,5-dicyano-phenoxy)-4-ethyl-phenyl]-N-(2-chloro-phenyl)-acetamide], the melting point fell in the range of 110 to 111.5 °C.
As for `CCCCC(=O)NS(=O)(=O)c1ccc(NC(=O)Cc2ccc(Cl)c(Oc3cc(Cl)cc(C#N)c3)c2F)c(Cl)c1.[Na]`, the figure is 157.6 to 159.2 °C.
In turn, `CCc1ccc(CC(=O)Nc2ccc(S(N)(=O)=O)cc2)cc1Oc1cc(Cl)cc(Br)c1Cl` [Compound I-35, 2-[3-(3-Bromo-2,5-dichloro-phenoxy)-4-ethyl-phenyl]-N-(4-sulfamoyl-phenyl)-acetamide] yielded a melting point of 206.9 to 209.9 °C.
As for `CCc1cc(CC(=O)Nc2ccc(S(N)(=O)=O)cc2C)cc(Oc2cc(C#N)ccc2Cl)c1` [Compound I-106, 2-[3-(2-Chloro-5-cyano-phenoxy)-5-ethyl-phenyl]-N-(2-methyl-4-sulfamoyl-phenyl)-acetamide], the melting point is 231.6 to 233.1 °C.
In the case of `Cc1cc(CC(=O)Nc2ccc(S(N)(=O)=O)cc2C)cc(C(=O)c2cccc(Cl)c2)c1` [Compound I-260, 2-[3-(3-Chloro-benzoyl)-5-methyl-phenyl]-N-(2-methyl-4-sulfamoyl-phenyl)-acetamide] it was 210.3 to 211.6 °C; in that of `CC(F)(F)c1cc(C#N)cc(Oc2c(Cl)ccc(CC(=O)Nc3ccc(S(N)(=O)=O)cc3Cl)c2F)c1` [Compound I-97, 2-{4-Chloro-3-[3-cyano-5-(1,1-difluoro-ethyl)-phenoxy]-2-fluoro-phenyl}-N-(2-chloro-4-sulfamoyl-phenyl)-acetamide], 192 to 197.6 °C.
On to `Cc1cc(CC(=O)Nc2ccccc2Cl)cc(C(=O)c2ccccc2Cl)c1` [Compound I-259, 2-[3-(2-Chloro-benzoyl)-5-methyl-phenyl]-N-(2-chloro-phenyl)-acetamide], for which the melting point lay within 125.1 to 127 °C.
In the case of `CC(C)c1ccc(CC(=O)Nc2ccc(S(N)(=O)=O)cc2)cc1Oc1cc(Cl)ccc1Br` [Compound I-26, 2-[3-(2-Bromo-5-chloro-phenoxy)-4-isopropyl-phenyl]-N-(4-sulfamoyl-phenyl)-acetamide] it was 204.1 to 206.7 °C.
As for `Cc1ccc(C#N)cc1C(=O)c1cc(CC(=O)Nc2ccc(S(N)(=O)=O)cc2)ccc1C` [Compound I-266, 2-[3-(5-Cyano-2-methyl-benzoyl)-4-methyl-phenyl]-N-(4-sulfamoyl-phenyl)-acetamide], the figure is 229.6 to 231.1 °C; as for `Cc1cc(CC(=O)Nc2ccc(S(N)(=O)=O)cc2)cc(C(=O)c2cc(Cl)cc(Cl)c2)c1` [Compound I-269, 2-[3-(3,5-Dichloro-benzoyl)-5-methyl-phenyl]-N-(4-sulfamoyl-phenyl)-acetamide], 226 to 227.9 °C.
In the case of `Cc1cc(S(N)(=O)=O)ccc1NC(=O)Cc1ccc(C)c(Oc2cc(C#N)cc(C(F)F)c2)c1F` [Compound I-85, 2-[3-(3-Cyano-5-difluoromethyl-phenoxy)-2-fluoro-4-methyl-phenyl]-N-(2-methyl-4-sulfamoyl-phenyl)-acetamide] it was 218 to 220.4 °C.
